Laboratory results reported in PubChem BioAssay (NCI).
Values joined by “and” are separate entries in the source; they are usually repeats but may differ in a detail not shown here. Identical values can stand only once.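 Abbreviation: GI50, concentration required for 50% inhibition of growth. TGI denotes the concentration required for complete inhibition of growth.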

Columns and labels:
Assay in all cases: NCI anticancer screen, dose series, 384-well format; in the data active = GI50 below about 0.43 µM; inactive = the rest
COLO 205 colon = tested on: COLO 205 colon
CAKI-1 renal = tested on: CAKI-1 renal
OVCAR-4 ovarian = tested on: OVCAR-4 ovarian
MALME-3M melanoma = tested on: MALME-3M melanoma
SK-OV-3 ovarian = tested on: SK-OV-3 ovarian
DU-145 prostate = tested on: DU-145 prostate
NCI-H322M lung = tested on: NCI-H322M lung
A498 renal = tested on: A498 renal
OVCAR-3 ovarian = tested on: OVCAR-3 ovarian
BT-549 breast = tested on: BT-549 breast
KM12 colon = tested on: KM12 colon
MCF7 breast = tested on: MCF7 breast
RPMI-8226 leukemia = tested on: RPMI-8226 leukemia
SF-539 CNS = tested on: SF-539 CNS
SK-MEL-28 melanoma = tested on: SK-MEL-28 melanoma
UO-31 renal = tested on: UO-31 renal
SR leukemia = tested on: SR leukemia
SF-295 CNS = tested on: SF-295 CNS
UACC-257 melanoma = tested on: UACC-257 melanoma
NCI-H23 lung = tested on: NCI-H23 lung
MDA-MB-435 melanoma = tested on: MDA-MB-435 melanoma
SW-620 colon = tested on: SW-620 colon
HS 578T breast = tested on: HS 578T breast
M14 melanoma = tested on: M14 melanoma
MDA-MB-468 breast = tested on: MDA-MB-468 breast
NCI/ADR-RES ovarian = tested on: NCI/ADR-RES ovarian
U251 glioblastoma = tested on: U251 glioblastoma
K-562 leukemia = tested on: K-562 leukemia
T-47D breast = tested on: T-47D breast
HOP-92 NSCLC = tested on: HOP-92 NSCLC
TK-10 renal = tested on: TK-10 renal
NCI-H522 lung = tested on: NCI-H522 lung
SN12C renal = tested on: SN12C renal
HCC-2998 colon = tested on: HCC-2998 colon
786-0 renal = tested on: 786-0 renal
HT29 colon = tested on: HT29 colon
NCI-H226 lung = tested on: NCI-H226 lung
SNB-19 CNS = tested on: SNB-19 CNS
MDA-MB-231 breast = tested on: MDA-MB-231 breast
IGROV1 ovarian = tested on: IGROV1 ovarian
SK-MEL-2 melanoma = tested on: SK-MEL-2 melanoma
HL-60(TB) leukemia = tested on: HL-60(TB) leukemia
NCI-H460 NSCLC = tested on: NCI-H460 NSCLC
HOP-62 NSCLC = tested on: HOP-62 NSCLC
MOLT-4 leukemia = tested on: MOLT-4 leukemia
SNB-75 CNS = tested on: SNB-75 CNS
ACHN renal = tested on: ACHN renal
HCT-15 colon = tested on: HCT-15 colon
SF-268 CNS = tested on: SF-268 CNS
HCT-116 colon = tested on: HCT-116 colon
A549 NSCLC = tested on: A549 NSCLC
SK-MEL-5 melanoma = tested on: SK-MEL-5 melanoma
UACC-62 melanoma = tested on: UACC-62 melanoma
EKVX NSCLC = tested on: EKVX NSCLC
RXF 393 renal = tested on: RXF 393 renal
PC-3 prostate = tested on: PC-3 prostate
LOX IMVI melanoma = tested on: LOX IMVI melanoma
CCRF-CEM leukemia = tested on: CCRF-CEM leukemia
OVCAR-5 ovarian = tested on: OVCAR-5 ovarian

CC1Cc2ccccc2N1C(=O)Cc1nc(N2CCOCC2)cc(=O)[nH]1 (stereo not drawn)
0.266 µM and 1.16 µM: GI50 (RXF 393 renal)
7.96 µM and 32.8 µM: TGI (IGROV1 ovarian)
34.4 µM and > 100 µM: TGI (KM12 colon)
20.4 µM and 41 µM: TGI (MOLT-4 leukemia)
45.6 µM and > 100 µM: TGI (BT-549 breast)
0.286 µM and 1.34 µM: GI50 (A498 renal)
2.47 µM and 7.74 µM: TGI (A498 renal)
> 100 µM and 45.6 µM: TGI (UO-31 renal)
24.6 µM and > 100 µM: TGI (OVCAR-3 ovarian)
97.1 µM and > 100 µM: TGI (MALME-3M melanoma)
29.7 µM and > 100 µM: TGI (HT29 colon)
99.7 µM and > 100 µM: TGI (NCI-H322M lung)
24.9 µM and > 100 µM: TGI (RPMI-8226 leukemia)
inactive: GI50 (COLO 205 colon) 53.8 µM and > 100 µM | GI50 (CAKI-1 renal) 4.84 µM and 12.7 µM | GI50 (OVCAR-4 ovarian) > 100 µM and 74.9 µM | GI50 (MALME-3M melanoma) 14.3 µM and 23.3 µM | GI50 (SK-OV-3 ovarian) 8.17 µM and 16.2 µM | GI50 (DU-145 prostate) 14.2 µM and 34.2 µM | GI50 (NCI-H322M lung) 12.5 µM and 38.2 µM | GI50 (OVCAR-3 ovarian) 2.41 µM and 8.56 µM | GI50 (BT-549 breast) 2.46 µM and 11.6 µM | GI50 (KM12 colon) 13.5 µM and 72 µM | GI50 (MCF7 breast) 3.23 µM and 14.9 µM | GI50 (RPMI-8226 leukemia) 11.8 µM and 36.3 µM | GI50 (SF-539 CNS) 22.4 µM and 59.7 µM | GI50 (SK-MEL-28 melanoma) 6.88 µM and 26.8 µM | GI50 (UO-31 renal) 4.59 µM and 14 µM | GI50 (SR leukemia) 14.3 µM and 21.4 µM | GI50 (SF-295 CNS) 5.17 µM and 17.9 µM | GI50 (UACC-257 melanoma) 47.9 µM and > 100 µM | GI50 (NCI-H23 lung) 37.6 µM and > 100 µM | GI50 (MDA-MB-435 melanoma) > 100 µM and 85.3 µM | GI50 (SW-620 colon) 64.3 µM and > 100 µM | GI50 (HS 578T breast) 3.8 µM and 13.4 µM | GI50 (M14 melanoma) > 100 µM and 71 µM | GI50 (MDA-MB-468 breast) 3.31 µM and 15.1 µM | GI50 (NCI/ADR-RES ovarian) > 100 µM | GI50 (U251 glioblastoma) 67.8 µM and > 100 µM | GI50 (K-562 leukemia) 37.8 µM and 78.3 µM | GI50 (T-47D breast) 3.31 µM and 11.2 µM | GI50 (HOP-92 NSCLC) 8.04 µM and 25.3 µM | GI50 (TK-10 renal) 7.25 µM and 25.3 µM | GI50 (NCI-H522 lung) 25.2 µM and 57.7 µM | GI50 (SN12C renal) 4.74 µM and 22.6 µM | GI50 (HCC-2998 colon) 4.86 µM and 33 µM | GI50 ([…]-0 renal) 3.31 µM and 17.8 µM | GI50 (HT29 colon) 9.87 µM and 49.4 µM | GI50 (NCI-H226 lung) 63.2 µM and 65.3 µM | GI50 (SNB-19 CNS) > 100 µM | GI50 (MDA-MB-231 breast) 22.5 µM and 51.2 µM | GI50 (IGROV1 ovarian) 1.72 µM and 7.93 µM | GI50 (SK-MEL-2 melanoma) 63.2 µM and > 100 µM | GI50 (HL-60(TB) leukemia) 3.35 µM and 10.3 µM | GI50 (NCI-H460 NSCLC) 8.38 µM and 29.9 µM | GI50 (HOP-62 NSCLC) 20.6 µM and 33.5 µM | GI50 (MOLT-4 leukemia) 4.69 µM and 15 µM | GI50 (SNB-75 CNS) 0.561 µM and 3.1 µM | GI50 (ACHN renal) 5.56 µM and 17.4 µM | GI50 (HCT-15 colon) 24.1 µM and 37.9 µM | GI50 (SF-268 CNS) 18.5 µM and 49.8 µM | GI50 (HCT-116 colon) 16.3 µM and 52.1 µM | GI50 (A549 NSCLC) 16.2 µM and 32.4 µM | GI50 (SK-MEL-5 melanoma) 20.2 µM and 33.2 µM | GI50 (UACC-62 melanoma) 9.61 µM and 32.7 µM | GI50 (EKVX NSCLC) 5.5 µM and 15.9 µM | GI50 (PC-3 prostate) 1.86 µM and 4.92 µM | GI50 (LOX IMVI melanoma) 14.5 µM and 50.9 µM | GI50 (CCRF-CEM leukemia) 23.1 µM and 61.7 µM | GI50 (OVCAR-5 ovarian) 18.9 µM and 58.3 µM
75.2 µM and > 100 µM: TGI (HCC-2998 colon)
> 100 µM: TGI (COLO 205 colon) | TGI (CAKI-1 renal) | TGI (OVCAR-4 ovarian) | TGI (SK-OV-3 ovarian) | TGI (DU-145 prostate) | TGI (MCF7 breast) | TGI (SF-539 CNS) | TGI (SK-MEL-28 melanoma) | TGI (SF-295 CNS) | TGI (UACC-257 melanoma) | TGI (NCI-H23 lung) | TGI (MDA-MB-435 melanoma) | TGI (SW-620 colon) | TGI (M14 melanoma) | TGI (NCI/ADR-RES ovarian) | TGI (U251 glioblastoma) | TGI (K-562 leukemia) | TGI (HOP-92 NSCLC) | TGI (TK-10 renal) | TGI (NCI-H522 lung) | TGI (SN12C renal) | TGI (786-0 renal) | TGI (NCI-H226 lung) | TGI (SNB-19 CNS) | TGI (MDA-MB-231 breast) | TGI (SK-MEL-2 melanoma) | TGI (NCI-H460 NSCLC) | TGI (HOP-62 NSCLC) | TGI (ACHN renal) | TGI (HCT-15 colon) | TGI (SF-268 CNS) | TGI (HCT-116 colon) | TGI (A549 NSCLC) | TGI (SK-MEL-5 melanoma) | TGI (UACC-62 melanoma) | TGI (PC-3 prostate) | TGI (CCRF-CEM leukemia) | TGI (OVCAR-5 ovarian)
24.7 µM and > 100 µM: TGI (HL-60(TB) leukemia)
38.9 µM and 98.9 µM: TGI (EKVX NSCLC)
17.7 µM and 65.7 µM: TGI (MDA-MB-468 breast)
65 µM and 75.2 µM: TGI (T-47D breast)
25.4 µM and 40.2 µM: TGI (SNB-75 CNS)
42.4 µM and > 100 µM: TGI (LOX IMVI melanoma)
28.4 µM and 62.9 µM: TGI (SR leukemia)
23.1 µM and 58.3 µM: TGI (HS 578T breast)
3.44 µM and 15 µM: TGI (RXF 393 renal)
